Assay results published in article PMC3407035 (Journal of enzyme inhibition and medicinal chemistry, 2011).

How the values were obtained:
[1] = biological target: T1, Human GGT1 (gamma-glutamyl transpeptidase, GGT) (Homo sapiens, UniProt P19440); test: pNA release at […] nm, transpeptidation; format: biochemical
[2] = biological target: T1, Human GGT1 (gamma-glutamyl transpeptidase, GGT); test: pNA release at […] nm, hydrolysis; format: biochemical; details: read-out: D-GpNA Minus acceptor; no acceptor, pH 7.4, 37 °C

T1 sequence (P19440 27-380 limits assumed): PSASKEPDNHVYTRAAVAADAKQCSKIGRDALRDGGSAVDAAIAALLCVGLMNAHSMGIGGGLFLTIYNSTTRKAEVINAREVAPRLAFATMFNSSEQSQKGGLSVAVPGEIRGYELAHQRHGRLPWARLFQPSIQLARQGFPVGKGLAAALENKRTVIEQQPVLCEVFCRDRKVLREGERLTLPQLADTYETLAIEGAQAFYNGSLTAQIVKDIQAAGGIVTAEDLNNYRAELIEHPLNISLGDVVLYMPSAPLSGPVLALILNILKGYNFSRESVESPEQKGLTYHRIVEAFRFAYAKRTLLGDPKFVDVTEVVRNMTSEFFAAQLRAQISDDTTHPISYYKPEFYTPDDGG
T1 sequence (P19440 381-569 limits assumed): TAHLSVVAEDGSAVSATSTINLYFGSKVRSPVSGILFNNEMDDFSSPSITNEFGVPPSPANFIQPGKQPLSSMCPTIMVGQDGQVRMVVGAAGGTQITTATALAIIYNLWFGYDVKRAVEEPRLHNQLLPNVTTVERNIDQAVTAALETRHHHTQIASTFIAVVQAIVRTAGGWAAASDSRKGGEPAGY

SMILES	Ki [1]	Km [2]
COc1ccc(Cc2nnc(NS(=O)(=O)c3cccc4ccccc34)s2)cc1 [compound 6, Compound 6]	45.7 ± 3.4 µM	
Cc1cccc(Cc2nnc(NS(=O)(=O)c3ccc([N+](=O)[O-])cc3)s2)c1 [compound 18, Compound 18]	34.3 ± 0.9 µM	
Cc1ccc(Cc2nnc(NS(=O)(=O)c3ccc([N+](=O)[O-])cc3)s2)cc1 [compound 17, Compound 17]	56.9 ± 8.3 µM	
COc1ccc(Cc2nnc(NS(=O)(=O)c3ccc(Cl)cc3)s2)cc1 [compound 10, Compound 10]	13.4 ± 0.8 µM	
N[C@H](CCC(=O)Nc1ccc([N+](=O)[O-])cc1)C(=O)O [D-GpNA]		160 ± 20 µM
